According to PMC4241021 (Nature communications, 2014):

Tests used:
Conditions in all cases: labelled compound; 5 mM MgCl2, 50 mM KCl, Tris-HCl pH 8.0, 37 °C
RK2 KorB = RK2 KorB (Escherichia coli, UniProt P07674)
ICE1056Fin = ICE1056Fin (Haemophilus influenzae, UniProt A0A8I2XW01)
P1 ParB = P1 ParB (Punavirus P1, UniProt Q38420)
Sequence of P1 ParB (Q38420 1-333): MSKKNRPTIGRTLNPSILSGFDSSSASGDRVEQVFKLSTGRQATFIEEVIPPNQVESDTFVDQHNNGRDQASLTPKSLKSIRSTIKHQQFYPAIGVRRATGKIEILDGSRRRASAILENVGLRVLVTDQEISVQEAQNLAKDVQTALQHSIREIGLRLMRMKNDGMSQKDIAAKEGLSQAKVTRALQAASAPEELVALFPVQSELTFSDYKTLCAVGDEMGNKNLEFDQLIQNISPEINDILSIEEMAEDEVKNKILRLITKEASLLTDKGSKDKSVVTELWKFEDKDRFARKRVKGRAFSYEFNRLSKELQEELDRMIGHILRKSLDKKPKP

Sequence of RK2 KorB (P07674 whole entry): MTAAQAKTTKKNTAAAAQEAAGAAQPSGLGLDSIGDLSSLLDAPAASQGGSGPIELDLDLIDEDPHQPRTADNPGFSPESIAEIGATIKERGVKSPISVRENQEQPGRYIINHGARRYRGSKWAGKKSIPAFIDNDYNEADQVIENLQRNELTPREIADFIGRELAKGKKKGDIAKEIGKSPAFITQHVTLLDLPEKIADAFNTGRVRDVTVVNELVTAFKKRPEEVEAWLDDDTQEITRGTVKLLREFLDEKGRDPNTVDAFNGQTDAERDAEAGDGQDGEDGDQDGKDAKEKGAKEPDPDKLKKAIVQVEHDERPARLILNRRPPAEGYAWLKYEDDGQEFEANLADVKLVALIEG
Sequence of ICE1056Fin (A0A8I2XW01 1-185): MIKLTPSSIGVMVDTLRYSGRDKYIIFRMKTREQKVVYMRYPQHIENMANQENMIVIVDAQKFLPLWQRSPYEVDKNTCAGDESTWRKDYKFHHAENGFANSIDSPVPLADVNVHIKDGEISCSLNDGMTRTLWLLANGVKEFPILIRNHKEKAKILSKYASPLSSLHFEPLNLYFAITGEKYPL

## Nc1ncnc2c1ncn2[C@@H]1O[C@H](COP(=O)(O)OP(=O)(O)OP(=O)(O)O)[C@@H](O)[C@H]1O [ATP]
RK2 KorB
  TLC ATPase assay, γ-phosphate release: ICE1056Fin, P1 ParB and RK2 KorB also exhibited comparable ATPase activity
ICE1056Fin
  TLC ATPase assay, γ-phosphate release: ICE1056Fin, P1 ParB and RK2 KorB also exhibited comparable ATPase activity
P1 ParB
  TLC ATPase assay, γ-phosphate release: ICE1056Fin, P1 ParB and RK2 KorB also exhibited comparable ATPase activity
